Laboratory results from patent US20130131089A1, “DOSAGE FORMS OF ELINOGREL AND METHODS OF INJECTABLE ADMINISTRATION THEREOF” (Portola Phamaceuticals Inc., priority 2010, published 2013).
In brackets after ≈: the same amount, converted by molar mass. Where two headings read alike, the source gives them in different places.

Tests used:
[1] = Solubility in co-solvents (propylene glycol, ethanol); assay type: physicochemical; details: propylene glycol/ethanol co-solvent mixture, aqueous with cosolvent or surfactant or cyclodextrin, thermodynamic from solid, 10% EtOH, no pH adjustment, 25° C.
Experimental: Excess Elinogrel potassium solids were added into ½ mL of 25% or 75% propylene glycol with 10% ethanol and the suspensions were equilibrated for 12 days at ambient temperature. Solubilities were determined by analyzing concentration of supernatants via HPLC.

[2] = Kinetic solubility in liquid formulation containing mannitol and glycine buffer; assay type: physicochemical; details: 4% mannitol; for Solubility (kinetic): 50 mM glycine sodium; for solubility kinetic at 1 day / solubility kinetic at 2 day / solubility kinetic at 3 day / solubility kinetic at 4 day / solubility kinetic at 5 day: IV vehicle: 50 mM glycine sodium, thermodynamic from solid; for solubility kinetic at 5 day: pH 8.8, Day 5
Experimental: Three solid state forms of Elinogrel were tested: i.e., Form B (mono potassium hemi hydrate), Form C (hemi potassium trihydrate), and the Free Acid form. Excess Elinogrel (i.e., ˜10 mg/ml when fully dissolved) was equilibrated with the IV vehicle composed of 50 mM glycine sodium and 4% mannitol at RT or refrigerated. The pH was monitored and adjusted to the target range using NaOH or HCl.

[3] = Solubility in sodium sulfobutyl ether β-cyclodextrin solutions over time; assay type: physicochemical
Experimental: A set of samples in 0, 10, 20, and 40% sodium sulfobutyl ether β-cyclodextrin with no pH adjustment were equilibrated for 12 days and concentrations of supernatants at 1, 3, 6, and 12 days were determined.
The solubility results of Elinogrel potassium at various sodium sulfobutyl ether β-cyclodextrin concentrations as a function of time (without pH adjustment) are shown in Table 4. […] There is a continued decrease of solubility overtime, before it approaching plateau at each SBE-β-CD level.

[4] = physchem; details: thermodynamic from solid, S (solubility)
Experimental: (§1) The white to off-white wet solids were collected by centrifugation at 13,000 rpm for 5 min and supernatant removal.

[5] = pH 9.3
Experimental: as §1

[6] = pKa, logP and logD of Elinogrel; assay type: physicochemical
[7] = test system: Male New Zealand White rabbits; assay: Rabbit vein and tissue irritation study; assay type: in vivo; details: 4% mannitol, perivascular and subcutaneous, 5 days
Experimental: Male New Zealand White rabbits were utilized in this study. Rabbits received 3 injections:
Intravenous (IV): 1.0 mL in left marginal ear vein;
Perivascular: 0.5 mL near the right marginal ear vein; and
Subcutaneous (SC): 1.0 mL in the scapular region of the dorsal back.
There were four rabbits per each of the following dose groups.
Normal Saline: 0.9% sodium chloride
Vehicle: 10 mM sodium glycine, 4% mannitol, pH 9.31
Elinogrel (Na salt) at 16.7 mg/mL in 10 mM glycine, 4% mannitol, pH 9.33
Elinogrel (K salt) at 4.0 mg/mL in 50 mM glycine, 4% mannitol, pH 9.38
On day 5, tissues (ears and skin) were harvested and processed for histological examination of the injection site.

[8] = Aqueous solubility of the free acid form; assay type: physicochemical; details: aqueous medium, aqueous buffer; pH 1.0-7.4
[9] = Thermodynamic solubility at different pH at 37° C.; assay type: physicochemical; details: aqueous slurry, thermodynamic from solid
Experimental: The thermodynamic solubility of Elinogrel potassium salt and free acid in pH range of 1-10 at 37° C. was also determined. Excess Elinogrel free acid or potassium salt (start from Form B) was equilibrated with its aqueous slurries at various pH under constant agitation. Different amounts of NaOH or HCl solution were used to adjust pH. Solubility was determined after 3 days by analyzing the elinogrel concentration in supernatant of the slurry after ultracentrifugation.

SMILES: CNc1cc2[nH]c(=O)n(-c3ccc(NC(=O)NS(=O)(=O)c4ccc(Cl)s4)cc3)c(=O)c2cc1F [Elinogrel potassium (Form B)]
- solubility at 12 d ([1]; 25% PG, pH 7.0, read-out: S (solubility)): 8000 µg/mL
- solubility at 12 d ([1]; 75% PG, pH 7.3, read-out: S (solubility)): 21000 µg/mL
- Solubility (kinetic) ([2]; RT, pH 8.8, Day 1, listed as Elinogrel K salt-Form B, potassium salt): 5930 µg/mL
- Solubility (kinetic) ([2]; RT, pH 8.8, Day 2, listed as Elinogrel K salt-Form B, potassium salt): 5200 µg/mL
- Solubility (kinetic) ([2]; RT, pH 8.8, Day 3, listed as Elinogrel K salt-Form B, potassium salt): 1750 µg/mL
- Solubility (kinetic) ([2]; RT, pH 8.8, Day 4, listed as Elinogrel K salt-Form B, potassium salt): 2080 µg/mL
- Solubility (kinetic) ([2]; RT, pH 8.8, Day 5, listed as Elinogrel K salt-Form B, potassium salt): 1370 µg/mL
- Solubility (kinetic) ([2]; RT, pH 9, Day 1, listed as Elinogrel K salt-Form B, potassium salt): 5890 µg/mL
- Solubility (kinetic) ([2]; RT, pH 9, Day 2, listed as Elinogrel K salt-Form B, potassium salt): 3560 µg/mL
- Solubility (kinetic) ([2]; RT, pH 9, Day 3, listed as Elinogrel K salt-Form B, potassium salt): 1780 µg/mL
- Solubility (kinetic) ([2]; RT, pH 9, Day 4, listed as Elinogrel K salt-Form B, potassium salt): 1950 µg/mL
- Solubility (kinetic) ([2]; RT, pH 9, Day 5, listed as Elinogrel K salt-Form B, potassium salt): 1290 µg/mL
- solubility kinetic at 1 day ([2]; 5 °C, pH 8.8, aqueous buffer, 5° C., pH 8.8, Day 1): 5480 µg/mL
- solubility kinetic at 2 day ([2]; 5 °C, pH 8.8, aqueous buffer, 5° C., pH 8.8, Day 2): 4020 µg/mL
- solubility kinetic at 3 day ([2]; 5 °C, pH 8.8, aqueous buffer, 5° C., pH 8.8, Day 3): 1580 µg/mL
- solubility kinetic at 4 day ([2]; 5 °C, pH 8.8, aqueous buffer, 5° C., pH 8.8, Day 4): 1580 µg/mL
- solubility kinetic at 5 day ([2]; 5 °C, pH 8.8, aqueous buffer, 5° C.): 1110 µg/mL

SMILES: CNc1cc2[nH]c(=O)n(-c3ccc(NC(=O)NS(=O)(=O)c4ccc(Cl)s4)cc3)c(=O)c2cc1F [Elinogrel potassium (Form C)]
- solubility in 20% sodium sulfobutyl ether β-cyclodextrin relative to that in water ([3]; 20% sodium sulfobutyl ether β-cyclodextrin vs water): approximately 4 fold
- Elinogrel potassium conc. ([3]; 20% sodium sulfobutyl ether β-cyclodextrin, 12 d, no pH adjustment (pH~7), potassium salt): 11.5 mg/mL
- Solubility (kinetic) ([2]; RT, pH 8.8, Day 1, listed as Elinogrel K-Form C, potassium salt): 2360 µg/mL
- Solubility (kinetic) ([2]; RT, pH 8.8, Day 2, listed as Elinogrel K-Form C, potassium salt): 1920 µg/mL
- solubility kinetic at 3 day ([2]; pH 8.8, aqueous buffer, RT, pH 8.8, Day 3): 1790 µg/mL
- solubility kinetic at 4 day ([2]; pH 8.8, aqueous buffer, RT, pH 8.8, Day 4): 2150 µg/mL
- solubility kinetic at 5 day ([2]; pH 8.8, aqueous buffer, RT): 1450 µg/mL

SMILES: CNc1cc2[nH]c(=O)n(-c3ccc(NC(=O)NS(=O)(=O)c4ccc(Cl)s4)cc3)c(=O)c2cc1F [Elinogrel sodium hydrate]
- solubility ([4]; 4 °C, water): 13000 µg/mL
- solubility ([4]; pH 9.2, water): 23000 µg/mL
- solubility ([4]; pH 9.3, aqueous buffer): 16000 µg/mL
- S (solubility) [5]: 17000 µg/mL

SMILES: CNc1cc2[nH]c(=O)n(-c3ccc(NC(=O)NS(=O)(=O)c4ccc(Cl)s4)cc3)c(=O)c2cc1F [Elinogrel, [4-(6-Fluoro-7-methylamino-2,4-dioxo-1,4-dihydro-2H-quinazolin-3-yl)-phenyl]-5-chloro-thiophen-2-yl-sulfonylurea]
- logP [6]: about 2.5
- pKa [6]: ~3.3
- logD ([6]; pH 7.4): about −1.6
- tolerability of injection ([7]; K salt at 4.0 mg/mL in 50 mM glycine, pH 9.38, intravenous): well tolerated
- tolerability of injection ([7]; Na salt at 16.7 mg/mL in 10 mM glycine, pH 9.33, intravenous): well tolerated
- solubility [8]: < 100 µg/mL
- Solubility (kinetic) ([2]; RT, pH 9, Day 5, listed as Elinogrel free acid-Form B): 4050 µg/mL (≈ 7730 µM)
- solubility kinetic at 1 day ([2]; pH 9, aqueous buffer, RT, pH 9, Day 1): 3140 µg/mL (≈ 5990 µM)
- solubility kinetic at 2 day ([2]; pH 9, aqueous buffer, RT, pH 9, Day 2): 3230 µg/mL (≈ 6160 µM)
- solubility kinetic at 3 day ([2]; pH 9, aqueous buffer, RT, pH 9, Day 3): 3330 µg/mL (≈ 6360 µM)
- solubility kinetic at 4 day ([2]; pH 9, aqueous buffer, RT, pH 9, Day 4): 2650 µg/mL (≈ 5060 µM)
- solubility thermodynamic at 3 days ([9]; aqueous buffer, pH 3.00): 0.057 µg/mL (≈ 0.109 µM)
- solubility thermodynamic at 3 days ([9]; aqueous buffer, pH 8.11): 418 µg/mL (≈ 799 µM)
- solubility thermodynamic at 3 days ([9]; pH 1.1, simulated gastric fluid, pH 1.10): 0.03 µg/mL (≈ 0.0573 µM)
- solubility thermodynamic at 3 days ([9]; pH adjusted with NaOH or HCl, aqueous buffer, pH 5.97): 0.544 µg/mL (≈ 1.04 µM)
- solubility thermodynamic at 3 days ([9]; pH adjusted with NaOH or HCl, aqueous buffer, pH 6.61): 2.17 µg/mL (≈ 4.14 µM)
- solubility thermodynamic at 3 days ([9]; pH adjusted with NaOH or HCl, aqueous buffer, pH 7.22): 46.6 µg/mL (≈ 88.9 µM)
- solubility thermodynamic at 3 days ([9]; pH adjusted with NaOH or HCl, pH 4.2, aqueous buffer, pH 4.20): 0.022 µg/mL (≈ 0.042 µM)
- solubility thermodynamic at 3 days ([9]; simulated gastric fluid, pH 1.88): 0.002 µg/mL (≈ 0.00382 µM)
